ChEMBL document CHEMBL3045984, “Resistance to HPPD-inhibiting herbicides in a population of waterhemp (Amaranthus tuberculatus) from Illinois, United States” (2011)

Legend:
Format in all cases: functional
Amaranthus tuberculatus [1] = experiment: Herbicidal activity against Amaranthus tuberculatus biotype MCR assessed as decrease in shoot dry weight applied as spray after 21 days under green house conditions
Amaranthus tuberculatus [2] = experiment: Herbicidal activity against Amaranthus tuberculatus biotype MCR 15 assessed as visual injury at 105 g/ha applied as spray after 21 days under green house conditions relative to untreated control
Amaranthus tuberculatus [3] = experiment: Herbicidal activity against Amaranthus tuberculatus biotype WCS assessed as decrease in shoot dry weight applied as spray after 21 days under green house conditions
Amaranthus tuberculatus [4] = experiment: Herbicidal activity against Amaranthus tuberculatus biotype WCS assessed as visual injury at 105 g/ha applied as spray after 14 days under green house conditions relative to untreated control
Amaranthus tuberculatus [5] = experiment: Herbicidal activity against Amaranthus tuberculatus biotype MCR assessed as mortality at 315 g/ha applied as spray after 21 days under green house conditions relative to untreated control; settings: 504 h
Amaranthus tuberculatus [6] = experiment: Herbicidal activity against Amaranthus tuberculatus biotype WCS assessed as visual injury at 105 g/ha applied as spray after 21 days under green house conditions relative to untreated control
Amaranthus tuberculatus [7] = experiment: Herbicidal activity against Amaranthus tuberculatus biotype MCR 12 assessed as visual injury at 105 g/ha applied as spray after 7 days under green house conditions relative to untreated control
Amaranthus tuberculatus [8] = experiment: Herbicidal activity against Amaranthus tuberculatus biotype WCS assessed as visual injury at 315 g/ha applied as spray after 21 days under green house conditions relative to untreated control
Amaranthus tuberculatus [9] = experiment: Herbicidal activity against Amaranthus tuberculatus biotype MCR 12 assessed as visual injury at 105 g/ha applied as spray after 14 days under green house conditions relative to untreated control
Amaranthus tuberculatus [10] = experiment: Herbicidal activity against Amaranthus tuberculatus biotype MCR 16 assessed as visual injury at 105 g/ha applied as spray after 14 days under green house conditions relative to untreated control
Amaranthus tuberculatus [11] = experiment: Herbicidal activity against Amaranthus tuberculatus biotype ACR assessed as visual injury at 105 g/ha applied as spray after 21 days under green house conditions relative to untreated control
Amaranthus tuberculatus [12] = experiment: Herbicidal activity against Amaranthus tuberculatus biotype WCS assessed as visual injury at 105 g/ha after 7 days applied as spray under green house conditions relative to untreated control
Amaranthus tuberculatus [13] = experiment: Herbicidal activity against Amaranthus tuberculatus biotype MCR 12 assessed as visual injury at 105 g/ha applied as spray after 21 days under green house conditions relative to untreated control
Amaranthus tuberculatus [14] = experiment: Herbicidal activity against Amaranthus tuberculatus biotype ACR assessed as visual injury at 105 g/ha applied as spray after 7 days under green house conditions relative to untreated control
Amaranthus tuberculatus [15] = experiment: Herbicidal activity against Amaranthus tuberculatus biotype MCR 15 assessed as visual injury at 105 g/ha applied as spray after 14 days under green house conditions relative to untreated control
Amaranthus tuberculatus [16] = experiment: Herbicidal activity against Amaranthus tuberculatus biotype ACR assessed as decrease in shoot dry weight at 105 g/ha applied as spray during post-emergence after 21 days under green house conditions relative to untreated control; design: scale not given: the % may be the effect or the level left
Amaranthus tuberculatus [17] = experiment: Herbicidal activity against Amaranthus tuberculatus biotype MCR 16 assessed as visual injury at 105 g/ha applied as spray after 7 days under green house conditions relative to untreated control
Amaranthus tuberculatus [18] = experiment: Herbicidal activity against Amaranthus tuberculatus biotype MCR 16 assessed as visual injury at 105 g/ha applied as spray after 21 days under green house conditions relative to untreated control
Amaranthus tuberculatus [19] = experiment: Herbicidal activity against Amaranthus tuberculatus biotype ACR assessed as visual injury at 315 g/ha applied as spray after 21 days under green house conditions relative to untreated control
Amaranthus tuberculatus [20] = experiment: Herbicidal activity against Amaranthus tuberculatus biotype MCR assessed as mortality at 105 g/ha applied as spray after 21 days under green house conditions relative to untreated control; settings: 504 h
Amaranthus tuberculatus [21] = experiment: Herbicidal activity against Amaranthus tuberculatus biotype MCR assessed as decrease in shoot dry weight at 105 g/ha applied as spray during post-emergence after 21 days under green house conditions relative to untreated control; design: scale not given: the % may be the effect or the level left
Amaranthus tuberculatus [22] = experiment: Herbicidal activity against Amaranthus tuberculatus biotype ACR assessed as decrease in shoot dry weight applied as spray after 21 days under green house conditions
Amaranthus tuberculatus [23] = experiment: Herbicidal activity against Amaranthus tuberculatus biotype ACR assessed as visual injury at 105 g/ha applied as spray after 14 days under green house conditions relative to untreated control
Amaranthus tuberculatus [24] = experiment: Herbicidal activity against Amaranthus tuberculatus biotype MCR 15 assessed as visual injury at 105 g/ha applied as spray after 7 days under green house conditions relative to untreated control
Amaranthus tuberculatus [25] = experiment: Herbicidal activity against Amaranthus tuberculatus biotype WCS assessed as decrease in shoot dry weight at 105 g/ha applied as spray during post-emergence after 21 days under green house conditions relative to untreated control; design: scale not given: the % may be the effect or the level left
Amaranthus tuberculatus [26] = experiment: Herbicidal activity against Amaranthus tuberculatus biotype ACR assessed as visual injury at 18 g/ha applied as spray after 21 days under green house conditions relative to untreated control
Amaranthus tuberculatus [27] = experiment: Herbicidal activity against Amaranthus tuberculatus biotype MCR 15 assessed as visual injury at 18 g/ha applied as spray after 14 days under green house conditions relative to untreated control
Amaranthus tuberculatus [28] = experiment: Herbicidal activity against Amaranthus tuberculatus biotype ACR assessed as visual injury at 18 g/ha applied as spray after 14 days under green house conditions relative to untreated control
Amaranthus tuberculatus [29] = experiment: Herbicidal activity against Amaranthus tuberculatus biotype MCR 12 assessed as visual injury at 18 g/ha applied as spray after 7 days under green house conditions relative to untreated control
Amaranthus tuberculatus [30] = experiment: Herbicidal activity against Amaranthus tuberculatus biotype ACR assessed as visual injury at 18 g/ha applied as spray after 7 days under green house conditions relative to untreated control
Amaranthus tuberculatus [31] = experiment: Herbicidal activity against Amaranthus tuberculatus biotype WCS assessed as visual injury at 18 g/ha applied as spray after 14 days under green house conditions relative to untreated control
Amaranthus tuberculatus [32] = experiment: Herbicidal activity against Amaranthus tuberculatus biotype MCR 15 assessed as visual injury at 18 g/ha applied as spray after 21 days under green house conditions relative to untreated control
Amaranthus tuberculatus [33] = experiment: Herbicidal activity against Amaranthus tuberculatus biotype MCR 16 assessed as visual injury at 18 g/ha applied as spray after 14 days under green house conditions relative to untreated control
Amaranthus tuberculatus [34] = experiment: Herbicidal activity against Amaranthus tuberculatus biotype MCR 16 assessed as visual injury at 18 g/ha applied as spray after 21 days under green house conditions relative to untreated control
Amaranthus tuberculatus [35] = experiment: Herbicidal activity against Amaranthus tuberculatus biotype MCR 12 assessed as visual injury at 18 g/ha applied as spray after 14 days under green house conditions relative to untreated control
Amaranthus tuberculatus [36] = experiment: Herbicidal activity against Amaranthus tuberculatus biotype MCR 12 assessed as visual injury at 18 g/ha applied as spray after 21 days under green house conditions relative to untreated control
Amaranthus tuberculatus [37] = experiment: Herbicidal activity against Amaranthus tuberculatus biotype MCR 16 assessed as visual injury at 18 g/ha applied as spray after 7 days under green house conditions relative to untreated control
Amaranthus tuberculatus [38] = experiment: Herbicidal activity against Amaranthus tuberculatus biotype MCR 15 assessed as visual injury at 18 g/ha applied as spray after 7 days under green house conditions relative to untreated control
Amaranthus tuberculatus [39] = experiment: Herbicidal activity against Amaranthus tuberculatus biotype WCS assessed as visual injury at 18 g/ha applied as spray after 7 days under green house conditions relative to untreated control
Amaranthus tuberculatus [40] = experiment: Herbicidal activity against Amaranthus tuberculatus biotype WCS assessed as visual injury at 18 g/ha applied as spray after 21 days under green house conditions relative to untreated control

For CS(=O)(=O)c1ccc(C(=O)C2C(=O)CCCC2=O)c([N+](=O)[O-])c1 [MESOTRIONE], the GR50 (Amaranthus tuberculatus [1]) was 48.5 g/ha, the Activity (Amaranthus tuberculatus [2]) was 26% and the GR50 (Amaranthus tuberculatus [3]) was 1.4 g/ha. The Activity (Amaranthus tuberculatus [4]) was 96%, the mortality at 315 g/ha (Amaranthus tuberculatus [5]) was 33% and the Activity (Amaranthus tuberculatus [6]) was 100%. It also gave an Activity (Amaranthus tuberculatus [7]) of 40%, an Activity (Amaranthus tuberculatus [8]) of 100% and an Activity (Amaranthus tuberculatus [9]) of 24%. For the same molecule, the Activity (Amaranthus tuberculatus [10]) was 45%, the Activity (Amaranthus tuberculatus [11]) was 88% and the Activity (Amaranthus tuberculatus [12]) was 85%. It also gave an Activity (Amaranthus tuberculatus [13]) of 13%, an Activity (Amaranthus tuberculatus [14]) of 63% and an Activity (Amaranthus tuberculatus [15]) of 36%. It also gave an Activity (Amaranthus tuberculatus [16]) of over 90%, an Activity (Amaranthus tuberculatus [17]) of 48% and an Activity (Amaranthus tuberculatus [18]) of 27%. The Activity (Amaranthus tuberculatus [19]) was 100%, the mortality at 105 g/ha (Amaranthus tuberculatus [20]) was 0% and the Activity (Amaranthus tuberculatus [21]) was 60%. For the same molecule, the GR50 (Amaranthus tuberculatus [22]) was 4.9 g/ha, the Activity (Amaranthus tuberculatus [23]) was 90% and the Activity (Amaranthus tuberculatus [24]) was 37%. It also gave an Activity (Amaranthus tuberculatus [25]) of over 90%.
In the case of Cc1c(C(=O)c2cnn(C)c2O)ccc(S(C)(=O)=O)c1C1=NOCC1 [TOPRAMEZONE], the Activity (Amaranthus tuberculatus [26]) is reported as 96%, the Activity (Amaranthus tuberculatus [27]) is reported as 59% and the Activity (Amaranthus tuberculatus [28]) is reported as 93%. For the same molecule, the Activity (Amaranthus tuberculatus [29]) was 41%, the Activity (Amaranthus tuberculatus [30]) was 69% and the Activity (Amaranthus tuberculatus [31]) was 96%. For the same molecule, the Activity (Amaranthus tuberculatus [32]) was 42%, the Activity (Amaranthus tuberculatus [33]) was 64% and the Activity (Amaranthus tuberculatus [34]) was 58%. The Activity (Amaranthus tuberculatus [35]) was 42%, the Activity (Amaranthus tuberculatus [36]) was 36% and the Activity (Amaranthus tuberculatus [37]) was 54%. It also gave an Activity (Amaranthus tuberculatus [38]) of 52%, an Activity (Amaranthus tuberculatus [39]) of 84% and an Activity (Amaranthus tuberculatus [40]) of 100%.
